Here are results for 14 compounds from US11111247B2, “Pyrazolopyrimidine compounds and uses thereof” (Incyte Corporation, priority 2018, dated 2021).

Structures are written as SMILES. Like-named read-outs stand apart in the source and are kept apart here.

In one experiment the target is ALK2 (aa 147-end) (Homo sapiens (Human), UniProt Q04771). Put plainly: ALK2 HTRF Assay. The format is biochemical. As to the method: The enzymatic assays were conducted in white 384-well polystyrene plates in a final volume of 8 μL. The inhibitors were serially diluted in DMSO and added to the plate wells prior to addition of the other reaction components. The assays were carried out at 25° C. in the assay buffer (50 mM HEPES, pH 7.1, 10% Glycerol, 0.01% Brij50, 10 mM MgCl2, 1 mM EGTA, 5 mM DTT, and 0.01% BSA), containing 50 nM LANCE Ultra ULight™-DNA Topoisomerase 2-alpha peptide (Perkin Elmer TRF0130), and 3 uM, 100 uM or 1 mM ATP (as specified). […] The reaction was read on a PHERAstar FS plate reader (BMG Labtech). IC50 determination was performed by fitting percent control activity versus the log of the inhibitor concentration using the IDBS XLFit and GraphPad Prism 5.0 software.
(TR-FRET usually uses a lanthanide donor and a delayed reading to cut background.)

For another experiment, the target named is FGFR3 (UP) (Homo sapiens (Human), UniProt P22607). Put plainly: FGFR Enzymatic Assay, FGFR3 un-phosphorylated.
Another experiment deals with FGFR1 (UP) (Homo sapiens (Human), UniProt P11362). Put plainly: FGFR Enzymatic Assay, FGFR1 un-phosphorylated.
The target of the next experiment is FGFR2 (UP) (Homo sapiens (Human), UniProt P21802). Put plainly: FGFR Enzymatic Assay, FGFR2 un-phosphorylated.
The target in a further experiment is ALK2 (Homo sapiens (Human), UniProt Q04771). Briefly: ALK2 Cellular Assay (phospho SMAD1 HTRF, BMP-7 stimulated HeLa cells). It is filed as cell-based. The conditions noted are these: HeLa cells, 200 ng/ml BMP-7, Phospho SMAD1 (S463/S465) HTRF; read-out: ALK2 Cellular Assay PSMAD. As to the method: HeLa cells were cultured in MEM media with 10% FBS. […] HeLa cells were plated in 96 well flat bottomed plate at 50,000 cells per well and incubated overnight. Next day, media was removed and 50 μL of fresh complete media was added. 5 μL compound was added to cells (3 μM final concentration at highest) and incubated for 60 min at 37° C. 200 ng/ml BMP-7 was added and incubated for 30 min at 37° C. After incubation, the media was removed, washed 2×PBS, and proceeded with HTRF kit according to Cisbio HTRF kit instructions for measuring the Phospho SMAD1 (S463/S465). Finally, both the donor and acceptor were added into 384 well plates and incubated at room temperature overnight and the HTRF signal was measured via Pherastar the next day.

The test system of another experiment is RT112 cells. Put plainly: Luminescent Viability Assay (LVA, FGFR3). The format is cell-based. The conditions noted are these: Homo sapiens, RT-112, 72 h, 3 days, CellTiter-Glo. The protocol:
RT112 cells were purchased from ATCC (Manassas, Va.) and maintained in RPMI, 10% FBS (Gibco/Life Technologies). To measure the effect of test compounds on the viability of cells, the cells were plated with RPMI 10% FBS (5×10^3 cells/well/in 50 μL) into black 96-well Greiner polystyrene in the presence or absence of 50 μl of a concentration range of test compounds. After 3 days, 100 μl of CellTiter-Glo Reagent (Promega) was added. Luminescence was read with a TopCount (PerkinElmer). IC50 determination was performed by fitting the curve of percent inhibition versus the log of the inhibitor concentration using the GraphPad Prism 5.0 software.
Background: ATP-based viability assays read luminescence as a measure of living cells.

The next experiment has as its target FGFR2 (P) (Homo sapiens (Human), UniProt P21802). Put plainly: FGFR Enzymatic Assay, FGFR2 phosphorylated. The settings on record: phosphorylated enzyme, ATP near or below Km.
The mark [1] stands for this setting: read-out: ALK2 3 μM IC50, 3 uM ATP.
Setting [2] is: read-out: ALK2 1 mM IC50, 1 mM ATP.
Where [3] appears, read: read-out: ALK2 100 μM IC50, 100 uM ATP.
The mark [4] stands for this setting: read-out: FGFR1 (UP) IC50, un-phosphorylated enzyme, ATP near or below Km.
Setting [5] is: read-out: FGFR3 (UP) IC50, un-phosphorylated enzyme, ATP near or below Km.

Chain of FGFR1 (UP) (P11362 22-822): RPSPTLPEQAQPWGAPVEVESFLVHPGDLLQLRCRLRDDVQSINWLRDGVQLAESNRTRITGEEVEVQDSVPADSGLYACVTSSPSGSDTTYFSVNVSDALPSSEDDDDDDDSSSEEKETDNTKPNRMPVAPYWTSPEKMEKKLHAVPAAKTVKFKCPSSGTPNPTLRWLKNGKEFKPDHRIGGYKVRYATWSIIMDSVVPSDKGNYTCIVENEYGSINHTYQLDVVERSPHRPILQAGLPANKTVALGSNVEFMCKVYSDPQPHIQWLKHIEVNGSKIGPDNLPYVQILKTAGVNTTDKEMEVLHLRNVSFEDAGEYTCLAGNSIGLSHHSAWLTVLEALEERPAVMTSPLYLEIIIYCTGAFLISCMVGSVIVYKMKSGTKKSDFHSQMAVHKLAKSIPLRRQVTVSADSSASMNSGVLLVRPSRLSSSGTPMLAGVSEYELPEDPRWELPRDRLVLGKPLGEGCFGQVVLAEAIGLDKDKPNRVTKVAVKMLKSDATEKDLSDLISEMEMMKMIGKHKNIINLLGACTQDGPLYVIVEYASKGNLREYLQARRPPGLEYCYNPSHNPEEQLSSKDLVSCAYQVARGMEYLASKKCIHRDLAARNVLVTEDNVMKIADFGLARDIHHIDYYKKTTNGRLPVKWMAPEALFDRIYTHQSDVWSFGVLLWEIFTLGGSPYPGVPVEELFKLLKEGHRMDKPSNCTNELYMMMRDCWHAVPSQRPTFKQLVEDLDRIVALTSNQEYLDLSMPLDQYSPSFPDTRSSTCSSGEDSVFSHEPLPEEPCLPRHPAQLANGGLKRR
Chain of FGFR2 (UP) (P21802 22-821): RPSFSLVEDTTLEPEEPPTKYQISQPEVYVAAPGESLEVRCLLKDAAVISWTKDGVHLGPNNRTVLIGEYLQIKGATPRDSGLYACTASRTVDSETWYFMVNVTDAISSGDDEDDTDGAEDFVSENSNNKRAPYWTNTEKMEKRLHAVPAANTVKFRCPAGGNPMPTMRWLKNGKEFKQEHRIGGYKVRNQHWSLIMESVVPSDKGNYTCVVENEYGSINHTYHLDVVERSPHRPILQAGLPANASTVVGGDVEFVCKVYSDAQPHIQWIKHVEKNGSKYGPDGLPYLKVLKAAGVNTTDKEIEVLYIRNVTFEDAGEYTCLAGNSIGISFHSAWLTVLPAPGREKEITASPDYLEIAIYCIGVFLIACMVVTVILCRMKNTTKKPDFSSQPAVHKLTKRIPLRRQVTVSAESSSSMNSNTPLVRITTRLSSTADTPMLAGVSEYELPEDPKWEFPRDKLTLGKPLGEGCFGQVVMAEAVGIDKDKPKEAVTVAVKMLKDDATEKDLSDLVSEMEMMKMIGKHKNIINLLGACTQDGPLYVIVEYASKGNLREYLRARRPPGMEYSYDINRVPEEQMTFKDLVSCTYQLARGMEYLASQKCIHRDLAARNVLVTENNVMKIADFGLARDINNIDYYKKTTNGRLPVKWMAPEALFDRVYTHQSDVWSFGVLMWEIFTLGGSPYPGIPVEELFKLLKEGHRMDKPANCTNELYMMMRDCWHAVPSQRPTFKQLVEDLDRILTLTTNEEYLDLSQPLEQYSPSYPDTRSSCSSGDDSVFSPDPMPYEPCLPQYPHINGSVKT
Chain of FGFR2 (P) (P21802 22-821): as above
Chain of FGFR3 (UP) (P22607 23-806): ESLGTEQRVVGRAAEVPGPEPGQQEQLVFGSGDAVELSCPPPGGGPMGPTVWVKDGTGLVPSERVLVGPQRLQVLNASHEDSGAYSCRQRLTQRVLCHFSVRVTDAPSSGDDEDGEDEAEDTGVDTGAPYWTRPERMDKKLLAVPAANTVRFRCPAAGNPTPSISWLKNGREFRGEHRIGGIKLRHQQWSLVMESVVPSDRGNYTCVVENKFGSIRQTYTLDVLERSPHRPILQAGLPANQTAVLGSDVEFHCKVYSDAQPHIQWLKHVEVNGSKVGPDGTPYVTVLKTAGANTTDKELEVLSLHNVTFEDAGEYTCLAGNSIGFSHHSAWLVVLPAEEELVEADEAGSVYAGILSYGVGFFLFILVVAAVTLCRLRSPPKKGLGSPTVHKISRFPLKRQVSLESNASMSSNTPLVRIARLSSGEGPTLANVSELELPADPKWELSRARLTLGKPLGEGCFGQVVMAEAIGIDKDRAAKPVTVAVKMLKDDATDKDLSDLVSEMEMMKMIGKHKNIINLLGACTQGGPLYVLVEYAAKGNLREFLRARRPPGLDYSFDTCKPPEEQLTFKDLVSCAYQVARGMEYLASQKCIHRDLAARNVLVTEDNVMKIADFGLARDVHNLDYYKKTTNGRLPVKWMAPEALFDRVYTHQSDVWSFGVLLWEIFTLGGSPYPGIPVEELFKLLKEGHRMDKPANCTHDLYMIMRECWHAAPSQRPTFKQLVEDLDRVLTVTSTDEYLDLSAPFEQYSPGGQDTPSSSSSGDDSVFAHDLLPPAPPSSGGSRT
Chain of ALK2 (aa 147-end) (Q04771 147-509): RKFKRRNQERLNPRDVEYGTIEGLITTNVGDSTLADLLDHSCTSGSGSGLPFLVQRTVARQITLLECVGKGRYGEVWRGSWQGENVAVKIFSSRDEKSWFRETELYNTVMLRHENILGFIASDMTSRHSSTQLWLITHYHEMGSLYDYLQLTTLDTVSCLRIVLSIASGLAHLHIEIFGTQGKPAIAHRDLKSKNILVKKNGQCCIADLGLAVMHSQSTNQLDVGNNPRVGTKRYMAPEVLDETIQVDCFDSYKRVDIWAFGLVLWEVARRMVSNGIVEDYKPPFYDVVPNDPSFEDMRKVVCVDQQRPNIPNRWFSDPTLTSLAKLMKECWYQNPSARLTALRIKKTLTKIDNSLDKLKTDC
Chain of ALK2 (Q04771 21-509): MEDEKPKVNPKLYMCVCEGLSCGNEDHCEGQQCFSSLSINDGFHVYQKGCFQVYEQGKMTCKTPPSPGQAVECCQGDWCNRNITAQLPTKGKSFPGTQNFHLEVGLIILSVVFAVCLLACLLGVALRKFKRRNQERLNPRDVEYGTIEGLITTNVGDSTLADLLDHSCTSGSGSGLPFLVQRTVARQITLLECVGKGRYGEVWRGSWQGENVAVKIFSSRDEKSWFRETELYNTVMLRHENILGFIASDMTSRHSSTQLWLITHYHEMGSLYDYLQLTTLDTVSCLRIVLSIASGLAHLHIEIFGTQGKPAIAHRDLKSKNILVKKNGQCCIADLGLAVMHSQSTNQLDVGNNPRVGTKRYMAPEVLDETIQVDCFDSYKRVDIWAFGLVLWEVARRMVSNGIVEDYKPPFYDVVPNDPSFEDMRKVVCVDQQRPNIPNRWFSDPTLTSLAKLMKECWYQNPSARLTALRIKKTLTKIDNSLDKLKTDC
Description for FGFR1 (UP): (§1) The inhibitor potency of the exemplified compounds was determined in an enzyme discontinuous assay that measures peptide phosphorylation using FRET measurements to detect product formation. Inhibitors were serially diluted in DMSO and a volume of 0.2 μL was transferred to the wells of a 384-well plate. For the isoforms of FGFR (−1, −2, −3 wild-type and mutant isoforms, −4) including phosphorylated (P) and un-phosphorylated (UP) proteins, a 5 μL/well volume of enzyme diluted in assay buffer (50 mM HEPES, 10 mM MgCl2, 1 mM EGTA, 0.01% Tween-20, 5 mM DTT, pH 7.5) was added to the plate and pre-incubated with inhibitor for 5 to 15 minutes at ambient temperature. Appropriate controls (enzyme blank and enzyme with no inhibitor) were included on the plate. The reaction was initiated by the addition of a 5 μL/well volume containing both biotinylated [sequence] […] The plate was allowed to equilibrate for −10 minutes at ambient temperature before scanning on a PheraStar plate reader (BMG Labtech) instrument.
(§2) Either GraphPad prism or XLfit was used to analyze the data. The IC50 values were derived by fitting the data to a four parameter logistic equation producing a sigmoidal dose-response curve with a variable Hill coefficient. Prism equation: Y=Bottom+(Top−Bottom)/(1+10^((LogIC50−X)*Hill slope)); XLfit equation: Y=(A+((B−A)/(1+((X/C)^D)))) where X is the logarithm of inhibitor concentration and Y is the response.
Description for FGFR2 (P): as §1, §2
Description for FGFR2 (UP): as §1, §2
Description for FGFR3 (UP): as §1, §2

For `CNC(=O)c1ccc(-c2n[nH]c3cnc(N4[C@H](C)CN(C(=O)OC)C[C@@H]4C)nc23)cc1` [Example 26, Methyl (3R,5S)-3,5-dimethyl-4-(3-(4-(methylcarbamoyl)phenyl)-1H-pyrazolo[4,3-d]pyrimidin-5-yl)piperazine-1-carboxylate], the IC50 is < 0.1 µM at ALK2 (aa 147-end) (setting [1]); > 2 µM at ALK2 (aa 147-end) (setting [2]); 0.1 to 0.5 µM against FGFR3 (UP); 0.5 to 2 µM at FGFR1 (UP); 0.1 to 0.5 µM against FGFR2 (UP).

`COC(=O)N1C[C@@H](C)N(c2ncc3[nH]nc(-c4ccc(C5CCN(CCO)C5)cc4)c3n2)[C@@H](C)C1` (stereo partly drawn) [Example 28, Methyl (3R,5S)-4-(3-(4-(1-(2-hydroxyethyl)pyrrolidin-3-yl)phenyl)-1H-pyrazolo[4,3-d]pyrimidin-5-yl)-3,5-dimethylpiperazine-1-carboxylate]: the IC50 at ALK2 (aa 147-end) (setting [1]) is < 0.1 µM; at ALK2 (aa 147-end) (setting [3]) it was < 0.1 µM; on ALK2, < 0.1 µM; against FGFR1 (UP), 0.5 to 2 µM; against FGFR2 (UP), 0.1 to 0.5 µM.

For `COC(=O)N1C[C@@H](C)N(c2ncc3[nH]nc(-c4ccc(N5CCN(C(C)CO)CC5)cc4)c3n2)[C@@H](C)C1` (stereo partly drawn) [Example 29, Methyl (3R,5S)-4-(3-(4-(4-(1-hydroxypropan-2-yl)piperazin-1-yl)phenyl)-1H-pyrazolo[4,3-d]pyrimidin-5-yl)-3,5-dimethylpiperazine-1-carboxylate], the IC50 at ALK2 (aa 147-end) (setting [1]) is < 0.1 µM; on ALK2 (aa 147-end) (setting [3]) it was < 0.1 µM; on ALK2, < 0.1 µM; at FGFR2 (UP), 0.5 to 2 µM.

Turning to `COC(=O)N1C[C@@H](C)N(c2ncc3[nH]nc(-c4ccc(N5CCN(C6CCOCC6)CC5)cc4)c3n2)[C@@H](C)C1` [Example 30, Methyl (3R,5S)-3,5-dimethyl-4-(3-(4-(4-(tetrahydro-2H-pyran-4-yl)piperazin-1-yl)phenyl)-1H-pyrazolo[4,3-d]pyrimidin-5-yl)piperazine-1-carboxylate], the IC50 on ALK2 (aa 147-end) (setting [1]) was < 0.1 µM; at ALK2 (aa 147-end) (setting [3]), < 0.1 µM; on ALK2, 0.1 to 0.5 µM; at FGFR2 (UP) it was 0.1 to 0.5 µM.

With `COC(=O)N1C[C@@H](C)N(c2ncc3[nH]nc(-c4ccc(N5CCN(C(C)(C)C(=O)O)CC5)cc4)c3n2)[C@@H](C)C1` [Example 31, 2-(4-(4-(5-((2R,6S)-4-(Methoxycarbonyl)-2,6-dimethylpiperazin-1-yl)-1H-pyrazolo[4,3-d]pyrimidin-3-yl)phenyl)piperazin-1-yl)-2-methylpropanoic acid], the IC50 is < 0.1 µM on ALK2 (aa 147-end) (setting [1]), < 0.1 µM on ALK2 (aa 147-end) (setting [3]), < 0.1 µM at ALK2 and 0.1 to 0.5 µM against FGFR2 (UP).

On to `COC(=O)N1C[C@@H](C)N(c2ncc3[nH]nc(-c4ccc(N5CCC(O)CC5)cc4)c3n2)[C@@H](C)C1` [Example 34, Methyl (3R,5S)-4-(3-(4-(4-hydroxypiperidin-1-yl)phenyl)-1H-pyrazolo[4,3-d]pyrimidin-5-yl)-3,5-dimethylpiperazine-1-carboxylate], for which the IC50 was 0.1 to 0.5 µM on ALK2 (aa 147-end) (ALK2 3 μM IC50, 3 uM ATP); > 2 µM on ALK2 (aa 147-end) (setting [2]); 0.5 to 2 µM on ALK2; > 2 µM on FGFR1 (UP) (setting [4]); 0.5 to 2 µM against FGFR2 (UP).

For `Cn1cc(-c2n[nH]c3cnc(N4CCc5ncccc5C4)nc23)cn1` [Example 40, 6-(3-(1-Methyl-1H-pyrazol-4-yl)-1H-pyrazolo[4,3-d]pyrimidin-5-yl)-5,6,7,8-tetrahydro-1,6-naphthyridine], the IC50 is 0.5 to 2 µM at ALK2 (aa 147-end) (ALK2 3 μM IC50, 3 uM ATP); 0.5 to 2 µM against ALK2 (aa 147-end) (ALK2 100 μM IC50, 100 uM ATP); 0.5 to 2 µM in the experiment on RT112 cells; 100 to 500 nM at FGFR2 (P) (FGFR2 (P) IC50 (nM)); < 0.1 µM at FGFR3 (UP) (setting [5]); 0.5 to 2 µM against FGFR1 (UP).

Regarding `Cn1cc(-c2n[nH]c3cnc(N4CCn5cnc(C(F)(F)F)c5C4)nc23)cn1` [Example 41, 3-(1-Methyl-1H-pyrazol-4-yl)-5-(1-(trifluoromethyl)-5,6-dihydroimidazo[1,5-a]pyrazin-7(8H)-yl)-1H-pyrazolo[4,3-d]pyrimidine], the IC50 at ALK2 (aa 147-end) (ALK2 3 μM IC50, 3 uM ATP) is 0.5 to 2 µM; against ALK2 (aa 147-end) (ALK2 100 μM IC50, 100 uM ATP) it was 0.5 to 2 µM; in the experiment on RT112 cells it was 0.1 to 0.5 µM; against FGFR2 (P) (FGFR2 (P) IC50 (nM)), 100 to 500 nM; at FGFR3 (UP) (setting [5]), < 0.1 µM; at FGFR1 (UP), 0.1 to 0.5 µM.

For `Cn1cc(-c2n[nH]c3cnc(N4CCc5cn[nH]c5C4)nc23)cn1` [Example 44, 3-(1-Methyl-1H-pyrazol-4-yl)-5-(1,4,5,7-tetrahydro-6H-pyrazolo[3,4-c]pyridin-6-yl)-1H-pyrazolo[4,3-d]pyrimidine], the IC50 against ALK2 (aa 147-end) (ALK2 3 μM IC50, 3 uM ATP) is 0.5 to 2 µM; on ALK2 (aa 147-end) (ALK2 100 μM IC50, 100 uM ATP), 0.5 to 2 µM; in the experiment on RT112 cells it was 0.5 to 2 µM; on FGFR2 (P) (read-out: FGFR2 (P) IC50) it was < 100 nM; at FGFR3 (UP) (setting [5]), < 0.1 µM; on FGFR1 (UP), 0.1 to 0.5 µM.

In the case of `Cn1cc(-c2n[nH]c3cnc(N4C5CCC4C(=O)N(CCF)C5)nc23)cn1` (stereo not drawn) [Example 51, 3-(2-Fluoroethyl)-8-(3-(1-methyl-1H-pyrazol-4-yl)-1H-pyrazolo[4,3-d]pyrimidin-5-yl)-3,8-diazabicyclo[3.2.1]octan-2-one], the IC50 against ALK2 (aa 147-end) (ALK2 3 μM IC50, 3 uM ATP) is 0.1 to 0.5 µM; on ALK2 (aa 147-end) (ALK2 100 μM IC50, 100 uM ATP), 0.5 to 2 µM; in the experiment on RT112 cells it was 0.5 to 2 µM; at FGFR2 (P) (FGFR2 (P) IC50 (nM)), 100 to 500 nM; on FGFR3 (UP) (setting [5]), < 0.1 µM; on FGFR1 (UP) it was 0.1 to 0.5 µM.

Consider `CC(C)C(=O)N1CCC(n2cc(-c3n[nH]c4cnc(N5C6CCC5C(=O)N(C)C6)nc34)cn2)CC1` (stereo not drawn) [Example 57, 8-(3-(1-(1-Isobutyrylpiperidin-4-yl)-1H-pyrazol-4-yl)-1H-pyrazolo[4,3-d]pyrimidin-5-yl)-3-methyl-3,8-diazabicyclo[3.2.1]octan-2-one], for which the IC50 against ALK2 (aa 147-end) (ALK2 3 μM IC50, 3 uM ATP) is 0.5 to 2 µM; on ALK2 (aa 147-end) (ALK2 100 μM IC50, 100 uM ATP), 0.5 to 2 µM; in the experiment with RT112 cells it was 0.5 to 2 µM; on FGFR2 (P) (read-out: FGFR2 (P) IC50), < 100 nM; on FGFR3 (UP) (setting [5]), < 0.1 µM; at FGFR1 (UP), 0.1 to 0.5 µM.

Turning to `CN1CC2CCC(C1=O)N2c1ncc2[nH]nc(-c3cnn(Cc4ccncc4)c3)c2n1` (stereo not drawn) [Example 59, 3-Methyl-8-(3-(1-(pyridin-4-ylmethyl)-1H-pyrazol-4-yl)-1H-pyrazolo[4,3-d]pyrimidin-5-yl)-3,8-diazabicyclo[3.2.1]octan-2-one], the IC50 is 0.5 to 2 µM at ALK2 (aa 147-end) (ALK2 3 μM IC50, 3 uM ATP); 0.5 to 2 µM on ALK2 (aa 147-end) (ALK2 100 μM IC50, 100 uM ATP); 0.5 to 2 µM with RT112 cells; < 100 nM on FGFR2 (P) (read-out: FGFR2 (P) IC50); < 0.1 µM at FGFR3 (UP) (setting [5]); 0.1 to 0.5 µM on FGFR1 (UP).

As to `CN1CCN(c2ccc(-c3n[nH]c4cnc(N5C6CCC5C(=O)N(C)C6)nc34)cn2)CC1` (stereo not drawn) [Example 60, 3-Methyl-8-(3-(6-(4-methylpiperazin-1-yl)pyridin-3-yl)-1H-pyrazolo[4,3-d]pyrimidin-5-yl)-3,8-diazabicyclo[3.2.1]octan-2-one], the IC50 was 0.5 to 2 µM on ALK2 (aa 147-end) (ALK2 100 μM IC50, 100 uM ATP); < 0.1 µM at ALK2 (aa 147-end) (setting [1]); 0.1 to 0.5 µM in the experiment on RT112 cells; < 100 nM at FGFR2 (P) (read-out: FGFR2 (P) IC50); < 0.1 µM on FGFR3 (UP) (setting [5]); < 0.1 µM on FGFR1 (UP) (setting [4]).

With `CN1CC2CCC(C1=O)N2c1ncc2[nH]nc(-c3cnn(-c4ccc5nccn5c4)c3)c2n1` (stereo not drawn) [Example 75, 8-(3-(1-(Imidazo[1,2-a]pyridin-6-yl)-1H-pyrazol-4-yl)-1H-pyrazolo[4,3-d]pyrimidin-5-yl)-3-methyl-3,8-diazabicyclo[3.2.1]octan-2-one], the IC50 was 0.5 to 2 µM against ALK2 (aa 147-end) (ALK2 3 μM IC50, 3 uM ATP); 0.5 to 2 µM against ALK2 (aa 147-end) (ALK2 100 μM IC50, 100 uM ATP); 0.5 to 2 µM with RT112 cells; < 100 nM on FGFR2 (P) (read-out: FGFR2 (P) IC50); < 0.1 µM at FGFR3 (UP) (setting [5]); < 0.1 µM at FGFR1 (UP) (setting [4]).
